Measurements published in PubChem BioAssay AID651895 (Broad Institute, 2012).
Active and inactive are the calls of the source.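 How the source made its calls: active means IC50 under 100 times the reference toxin's IC50 in the same rat muscle cell viability test; inactive means the rest.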

Test system: L-6 rat myoblast viability, Alamar blue, 72 h
Assay: host muscle cell viability loss – plate reader, dry powder, counter-screen for T. cruzi inhibitor project, dose response (AID 651895)

In the case of `C[C@@H]1CN([C@@H](C)CO)C(=O)c2cccc(NC(=O)c3ccncc3)c2O[C@H]1CN(C)Cc1ccc(Oc2ccccc2)cc1`, the IC50 was 14.8 µM (inactive).
